Assays:
Rattus norvegicus [1] = assay: Anti-inflammatory activity in carrageenan-induced paw edema Wistar albino Rattus norvegicus (rat) model assessed as change in paw volume at 25 mg/kg, po administered 1 hr prior to carrageenan-challenge measured after 2 hr by plethysmometer (reference value: 1.110 +/-0.07 ml); format: functional
Rattus norvegicus [2] = assay: Anti-inflammatory activity in Wistar albino Rattus norvegicus (rat) assessed as inhibition of carrageenan-induced paw edema at 25 mg/kg, po administered 1 hr prior to carrageenan-challenge measured after 3 hr by plethysmometer; format: functional
Rattus norvegicus [3] = assay: Anti-inflammatory activity in carrageenan-induced paw edema Wistar albino Rattus norvegicus (rat) model assessed as change in paw volume at 25 mg/kg, po administered 1 hr prior to carrageenan-challenge measured after 1 hr by plethysmometer (reference value: 0.900 +/-0.03 ml); format: functional
Rattus norvegicus [4] = assay: Anti-inflammatory activity in carrageenan-induced paw edema Wistar albino Rattus norvegicus (rat) model assessed as change in paw volume at 25 mg/kg, po administered 1 hr prior to carrageenan-challenge measured after 3 hr by plethysmometer (reference value: 1.200 +/-0.08 ml); format: functional
Mus musculus = assay: Analgesic activity in Albino Mus musculus (mouse) assessed as inhibition of acetic acid-induced abdominal writhings at 25 mg/kg, po administered 50 min prior to acetic acid injection measured after 10 min; format: functional; settings: Abdomen
Rattus norvegicus [5] = assay: Anti-inflammatory activity in Wistar albino Rattus norvegicus (rat) assessed as inhibition of carrageenan-induced paw edema at 25 mg/kg, po administered 1 hr prior to carrageenan-challenge measured after 1 hr by plethysmometer; format: functional
Rattus norvegicus [6] = assay: Anti-inflammatory activity in Wistar albino Rattus norvegicus (rat) assessed as inhibition of carrageenan-induced paw edema at 25 mg/kg, po administered 1 hr prior to carrageenan-challenge measured after 2 hr by plethysmometer; format: functional
Rattus norvegicus [7] = assay: Gastrointestinal toxicity in Wistar albino Rattus norvegicus (rat) stress model assessed as ulcerogenicity index at 25 mg/kg/day, po for 4 days measured on day 5; format: organism-based; design: route oral; settings: in vivo, 96 h
Rattus norvegicus [8] = assay: Gastrointestinal toxicity in Wistar albino Rattus norvegicus (rat) stress model assessed as ulcerogenicity index at 25 mg/kg/day, po for 4 days measured on day 5 relative to diclofenac sodium; format: organism-based; design: route oral; settings: in vivo, 96 h

Row | SMILES | Activity (Rattus norvegicus [1]) [mL] | inhibition in vivo at 25 mg/kg (Rattus norvegicus [2]) [%] | Activity (Rattus norvegicus [3]) [mL] | Activity (Rattus norvegicus [4]) [mL] | inhibition in vivo at 25 mg/kg (Mus musculus) [%] | inhibition in vivo at 25 mg/kg (Rattus norvegicus [5]) [%] | inhibition in vivo at 25 mg/kg (Rattus norvegicus [6]) [%] | UI (Rattus norvegicus [7]) | Activity (Rattus norvegicus [8]) [%]
1 | Nn1c(-c2csc(-c3ccccc3)n2)n[nH]c1=O | 0.979 | 19 | 0.844 | 1.074 | 19.7 | 15.2 | 23.1 |  | 
2 | Sc1nnc(-c2csc(-c3ccccc3)n2)o1 | 0.78 | 50.8 | 0.735 | 0.84 | 58.1 | 37.9 | 53.8 | 0.52 | 10
3 | c1ccc(-c2nc(-c3nnc(SCCN4CCOCC4)o3)cs2)cc1 | 0.995 | 21.6 | 0.864 | 1.076 | 21.8 | 14.5 | 23.5 |  | 
4 | CN(C)CCSc1nnc(-c2csc(-c3ccccc3)n2)o1 | 0.904 | 25.9 | 0.787 | 0.999 | 18.6 | 22.7 | 31.1 |  | 
5 | S=c1oc(-c2csc(-c3ccccc3)n2)nn1CN1CCCCC1 | 0.812 | 55.5 | 0.764 | 0.862 | 58.7 | 44.8 | 57.4 | 0.54 | 10
6 | CCOC(=O)c1cnn(C(=O)c2csc(-c3ccccc3)n2)c1N | 0.74 | 60.3 | 0.721 | 0.79 | 61.2 | 45.1 | 63 | 0.6 | 10
7 | Nc1cc(-c2ccccc2)nn1C(=O)c1csc(-c2ccccc2)n1 | 0.873 | 55.2 | 0.851 | 0.942 | 60.1 | 42.1 | 60.5 | 0.62 | 10
8 | c1ccc(-c2nc(-c3nnn[nH]3)cs2)cc1 | 0.885 | 40.4 | 0.825 | 0.935 | 16.5 | 30.8 | 38.1 |  | 
9 | c1ccc(-c2nc(-c3nnco3)cs2)cc1 | 0.962 | 27 | 0.842 | 1.052 | 18.1 | 24.2 | 31.5 |  | 
10 | Nc1nnc(-c2csc(-c3ccccc3)n2)o1 | 1.012 | 21.4 | 0.88 | 1.105 | 20.3 | 18.2 | 25.5 |  | 
11 | O=c1[nH]nc(-c2csc(-c3ccccc3)n2)o1 | 0.885 | 48.4 | 0.825 | 0.935 | 42.2 | 34.8 | 49.1 | 0.44 | 10
12 | O=C([O-])Cc1ccccc1Nc1c(Cl)cccc1Cl.[Na+] [DICLOFENAC SODIUM] | 0.8 | 54.9 | 0.762 | 0.85 | 58 | 40.6 | 56.7 | 4.67 | 
